# Results from article PMC10269622, “Blapstin, a Diapause-Specific Peptide-Like Peptide from the Chinese Medicinal Beetle Blaps rhynchopetera, Has Antifungal Function” (Microbiology Spectrum, 2023).
# Bridge positions count the residues as written; N and C are the ends. Ends that are not written are not given here.
# Columns and labels:
# [1] = test system: C. albicans; test: Thermostability of antifungal activity (paper disk assay); type: physicochemical, Candida albicans; details: for Antifungal activity after heating: 20 μL of 225 μM, then paper disk assay on YM medium, 37°C, 18 h
# Description: (i) Effects of temperature. In the test of thermostability of antifungal activity, (20 μL(225 μM) of blapstin was heated at different temperatures (20°C, 40°C, 60°C, 80°C, 90°C, and 100°C) for 30 min and cooled down at 4°C ([63]). Colistin E was used as the positive control, and 1.5% NaCl was used as the negative control. Then, these samples were transferred to the paper disks in the YM solid medium with C. albicans and incubated at 37°C for 18 h for the assay of antifungal activity.
# [2] = test system: C. albicans; test: pH stability of antifungal activity (paper disk assay); type: physicochemical, Candida albicans; details: 30 min at room temperature, then paper disk assay, 37°C, 18 h
# Description: (ii) Effects of pH. In the test of pH stability of antifungal activity, 50 mg of blapstin was dissolved in 25 mL of solutions with different pH values (pH 3 to 5, 0.1 mol HCl; pH 7 to 9, 1 mmol NaOH), and the peptide solutions of different pH values were incubated at room temperature for 30 min ([63]). Colistin E was used as the positive control, and 1.5% NaCl was used as the negative control. Then, these samples were transferred to the paper disks in the YM solid medium with C. albicans and incubated at 37°C for 18 h for the assay of antifungal activity.
# [3] = test system: C. albicans ATCC 10231; test: Cryo-SEM membrane morphology; type: cell-based, Candida albicans; details: 1× MIC, 10 μL on filter paper disk, YM solid medium
# Description: Cryo-SEM was used to examine membrane morphology as previously described with minor modifications ([65]). C. albicans ATCC 10231 was cultured in a nutrient YM solid medium. Sterilized 5-mm-diameter filter paper disks were placed on the surface of the medium, and 10 μL (1× MIC) of blapstin was added to the disks. Sterile 0.9% NaCl was used as the blank control. Fungi treated with blapstin were observed using cryo-SEM with a Quorum pp3010t system (Sigma 300; Carl Zeiss, Germany).
# [4] = test system: T. rubrum; test: Cryo-SEM membrane morphology; type: cell-based, Trichophyton rubrum; details: 1× MIC
# [5] = test system: human erythrocytes; test: Hemolysis assay; type: cell-based; details: concentration as high as 56.25 μM, 30 min, 37°C; 1% Triton X-100 as maximum hemolysis; three independent experiments
# Description: As previously reported ([65], [67]), hemolytic activity and cytotoxicity assays were performed using human erythrocytes and mouse macrophages (RAW 264.7 cells). These cells were obtained from Kunming Medical University and Cell Bank of Kunming Institute of Zoology, Chinese Academy of Sciences, respectively. To investigate the hemolytic activity, washed erythrocytes were diluted with normal saline into a suspension of 10^7 to 10^8 cells/mL and mixed with serial dilutions of blapstin (from 1.76 μM to 225 μM) at a 1:1 ratio, followed by incubation for 30 min at 37°C. Then, these erythrocytes were centrifuged for 15 min at 500 × g (Eppendorf, Germany; FA-45-24-11, 4°C). Next, the supernatant was collected, and the hemolysis rate (%) was measured to quantify the hemolysis of blapstin. The maximum hemolysis rate was determined using an equal volume of 1% Triton X-100 as a positive control, and the zero hemolysis rate was determined using sterile normal saline as a negative control. Hemolytic activity was calculated using the following formula: hemolysis rate (%) = (hemolysis of experimental group-negative control)/(hemolysis of positive control-negative control) × 100%. HC50 values were defined as the peptide concentrations causing 50% hemolysis of human erythrocytes.
# [6] = test system: RAW 264.7 cells; test: Cytotoxicity, CCK-8 assay; type: cell-based, mouse; details: from 7.03 μM to 225 μM, 24 h, CCK-8, absorbance at 450 nm; three independent experiments
# Description: Cytotoxicity was determined using mouse RAW 264.7 cells (10^6 cells/mL). These cells were cultured in sterile 96-well microplates with RPMI 1640 medium (Corning, USA) in a 5% CO2 incubator at 37°C. The medium was supplemented with 10% fetal calf serum (FCS) and penicillin-streptomycin (100 U/mL each). Cytotoxicity was assessed using the cell counting kit-8 (CCK-8) assay (MCE, USA). After 24 h of incubation with serial dilutions of blapstin, 10 μL of CCK-8 solution was added to each well. The plate was further incubated for 1 to 4 h under standard cell growth conditions, and the residual absorbance was read at 450 nm. The experiments were repeated three times according to the manufacturer’s instructions.
# [7] = test system: C. albicans ATCC 10231 biofilm; test: CLSM live/dead (FDA/PI) staining of biofilm; type: cell-based, Candida albicans; details: 8× MIC, among 0.5× to 8× MIC; 48 h, 37°C
# Description: Blapstin at various concentrations (500 μL) was added to 500 μL of the prepared fungal suspension of C. albicans ATCC 10231 (2 × 10^5 CFU/mL) in a sterile 24-well plate to ensure that the final concentration of blapstin ranged from 0.5× to 8× MIC; the plate was incubated for 48 h at 37°C, followed by washing with PBS two to three times to remove unadhered fungal cells. Then, 10 μg/mL of FDA (Solarbio, Beijing, China) and 5 μg/mL of PI (Solarbio, Beijing, China) were added for costaining in the dark for 30 min and washed with PBS twice, as described previously ([68]). Subsequently, the plates were observed using a CLSM (FV 1000; Olympus, Germany). The FDA and PI were excited at 488 nm and 555 nm, respectively, for imaging. Cell viability was assessed based on fluorescence staining; living cells hydrolyze FDA, resulting in the accumulation of green fluorescence, whereas dead cells are stained red by PI. Fluconazole at 10 μΜ and clotrimazole at 10 μΜ were used as a positive control, and sterile 0.9% NaCl was used as a negative control. Green or red fluorescence intensity was calculated using Image J.
sequence,measurement,setting,value
"VRVGPCDQVCSRTNPEKDECCRAHGHSGHSSCYGGRMNCYG (disulfide 6-21, 10-32, 20-39 (inferred)) [Blapstin]",Antifungal activity after heating,[1]; 20°C to 90°C for 30 min,full antifungal activity was retained
same,Antifungal activity after heating,[1]; 100°C for 30 min,slightly reduced
same,Thermostable up to,"[1]; heated 30 min, read-out antifungal activity toward C. albicans",up to 90 °C
same,Antifungal activity after pH exposure,[2]; pH 3 and pH 5 (HCl),full antifungal activity was retained
same,Antifungal activity after pH exposure,"[2]; pH higher than 7 (NaOH, up to pH 9)",reduced gradually
same,Membrane morphology under cryo-SEM,[3],membrane shrinkage and disruption of the plasma membrane
same,Membrane morphology under cryo-SEM,[4],membrane shrinkage and disruption of the plasma membrane
same,Hemolytic activity against human erythrocytes,[5],little hemolytic activity
same,Cytotoxicity in RAW 264.7 cells,[6],no obvious cytotoxicity
same,"Effect on biofilm activity (FDA-labeled live / PI-labeled dead cells, CLSM)",[7],greatest effect
